Read-outs that look alike come from different tables or passages of the source.

For data set [1] the following is noted: for Concentration of bile acids: pH 7.4, supernatant. How it is done:
A solution containing a mixture of bile acids was prepared by dissolving the following components in deionised water:
The pH was adjusted to 7.4.
A calcium chloride solution was prepared by dissolving the following components in deionised water:
2.0 ml of the bile acid solution was added to each of 6 glass vials. A known volume, varying from 0 to 300 μl, of the calcium chloride solution was added to each vial. Each sample was inspected visually immediately after the calcium chloride addition. 1.5 ml of each sample was transferred into a centrifugation tube and centrifuged for 20 mins at 14 000 rpm. The clear supernatant was collected and analysed with respect to bile acid content. The analyses were carried out using a bile acid analysis kit which employs an enzymatic colour reaction. The concentration of bile acid is proportional to the colour intensity which is determined by spectrophotometry.

For data set [2] the following is noted: for Absorbance (taurocholate concentration after the enzymatic colour reaction): pH 6.5, supernatant. How it is done:
A solution simulating the human intestinal fluid in the fasted state, FaSSIF, was prepared by dissolving the following components in deionised water.
The pH was adjusted to 6.5.
A separate solution of calcium chloride was prepared by dissolving 149.2 mM of the salt in deionised water.
5.0 ml of FaSSIF was added to each of 7 glass vials. A known volume, varying from 0 to 0.5 ml, of the calcium chloride solution was added to each vial. Each sample was inspected visually immediately after the calcium chloride addition.
A volume of 1.0 ml was withdrawn from each sample and centrifuged for 20 mins at 14 000 rpm. The clear supernatant of each sample was collected and analysed with respect to bile acid content. The analyses were carried out using a bile acid analysis kit which employs an enzymatic colour reaction. The concentration of bile acid is proportional to the colour intensity which is determined by spectrophotometry.

The conditions of data set [3]: dog.
Method: The IBAT inhibitor is dosed orally at a dose that will cause diarrhoea, for example 25-50 μmol/kg. The metal salt is then introduced into the colon, through the fistulae, to see if the diarrhoea can be prevented. The dose of the metal salt varies and can be determined after analysing the bile acid concentration in faeces from dogs having been exposed to the same dose of the IBAT inhibitor.
A solution of an BAT inhibitor was administered directly into the stomach of the dog via an orogastric tube (t=0 hours). The dog was fed 30 minutes after the administration of the IBAT inhibitor (t=0.5 hours).
Faeces was collected during the first 8 hours after administration, and the time for each bowel movement was recorded. Each faeces sample was homogenized with a high-shear mixer and, subsequently, centrifuged in order to separate the solid material from the faecal water phase. The faecal water was collected and analysed with respect to bile acid content. The amount of bile acid in the faecal water was related to the amount of solid material in each faeces sample.
For data set [4] the following is noted: 200 mg crystalline calcium phosphate in 10 ml, initial GDC 1-15 mM, pH 7.4, all samples.
Method: A stock solution of sodium glycodeoxycholate (GDC) was prepared by dissolving the following substances in deionised water:
(§1) The pH was adjusted to 7.4 with sodium hydroxide.
(§2) A similar buffer solution with the same content, except for the bile acid was also prepared.
The resulting initial GDC concentrations in the samples were 1-15 mM. The samples were equilibrated for several hours. The solid material in the samples were removed by centrifugation and/or filtration, and the obtained clear supernatants were analysed with respect to GDC content. The analyses were carried out by HPLC.
The conditions of data set [5]: 200 mg crystalline calcium phosphate in 10 ml, initial DC 1-20 mM, pH 7.4, all samples.
Method: A stock solution of sodium deoxycholate (DC) was prepared by dissolving the following substances in deionised water:
as §1, §2
The resulting initial DC concentrations in the samples were 1-20 mM. The samples were equilibrated for several hours. The solid material in the samples were removed by centrifugation and/or filtration, and the obtained clear supernatants were analysed with respect to DC content. The analyses were carried out by HPLC.
[6] abbreviates: with increasing added amount of calcium chloride.

As for `[Ca+2].[Cl-].[Cl-]` [calcium chloride], the “Concentration of bile acids” value in data set [1] (3.0 μmol calcium chloride added to 2.0 ml bile acid solution) was found to be 2.2 mM; in data set [1] (6.0 μmol calcium chloride added to 2.0 ml bile acid solution), 2.1 mM; in data set [1] (12.0 μmol calcium chloride added to 2.0 ml bile acid solution), 1.9 mM; in data set [1] (30.0 μmol calcium chloride added to 2.0 ml bile acid solution), 0.8 mM; in data set [1] (60.1 μmol calcium chloride added to 2.0 ml bile acid solution), 0.7 mM. Further, the “Visual inspection immediately after calcium chloride addition” value is on record as “a precipitate was formed in all samples” in data set [1] (bile acid mixture, all samples with calcium chloride) and “A precipitate was formed in all samples” in data set [2] (FaSSIF, all samples with calcium chloride). In data set [1] (setting [6]), the “Concentration of bile acids in the aqueous solution, trend” value is given as “decreased with increasing added amount of calcium chloride”. The “Absorbance (taurocholate concentration after the enzymatic colour reaction)” value is recorded as 0.0933 in data set [2] (7.5 μmol calcium chloride added to 5.0 ml FaSSIF); 0.0890 in data set [2] (14.9 μmol calcium chloride added to 5.0 ml FaSSIF); 0.0843 in data set [2] (22.4 μmol calcium chloride added to 5.0 ml FaSSIF); 0.0783 in data set [2] (29.8 μmol calcium chloride added to 5.0 ml FaSSIF); 0.0735 in data set [2] (44.8 μmol calcium chloride added to 5.0 ml FaSSIF); 0.0718 in data set [2] (74.6 μmol calcium chloride added to 5.0 ml FaSSIF). In addition, the “Concentration of taurocholate in the aqueous solution, trend” value in data set [2] (setting [6]) is recorded as “decreased with increasing added amount of calcium chloride”. In addition, in data set [3] (IBAT inhibitor into the stomach at t=0, intracolonic calcium chloride at t=1 hour, as long as calcium chloride is present in the colon), the “Bile acid concentration in faecal water” value is reported as “relatively constant”. For the same compound, the “Time after which most of the calcium chloride has been removed from the colon” value in data set [3] (intracolonic administration, removed by absorption or by bowel movements) was “approximately 3.5 hours”.

calcium phosphate: the “GDC concentration in supernatant (HPLC)” value in data set [4] is listed as “reduced by the presence of calcium phosphate in all samples”. Moreover, the “DC concentration in supernatant (HPLC)” value in data set [5] was “reduced by the presence of calcium phosphate in all samples”.

Values taken from US20060083790A1, “Combination of an ibat inhibitor and a metal salt for the treatment of diarrhoea” (priority 2002, published 2006).
